Experiments:
[1] = tested on: SGC-7901 human gastric adenocarcinoma cancer cell line; experiment: MTT in vitro antitumor (antiproliferative) assay, SGC-7901; format: cell-based; settings: for IC50: Homo sapiens, SGC-7901, 72 h, read-out: IC50 SGC-7901; for fold greater antiproliferative activity (lower IC50) than irinotecan, SGC-7901 cells: IC50 ratio vs irinotecan
Procedure: (§1) The in vitro antitumor activities were evaluated on human cancer cell lines SGC-7901 and HeLa by the MTT assay, using irinotecan as the reference compound.
(§2) The in vitro antitumor activity was evaluated on two human cancer cell lines with the MTT method. SGC-7901 is a human gastric adenocarcinoma cancer cell line and HeLa is a human cervical carcinoma cell line. Cells were provided by the Jilin Province Tumor Institute. Cells were maintained in IMDM medium supplemented with 10% fetal calf serum, 2 mM glutamine, 100 U/mL penicillin, and 100 μg/mL streptomycin, at 37 °C in a humidified atmosphere containing 5% CO2. The human cancer lines SGC-7901 and HELA at a concentration of […] were incubated in a 96-well microtiter plate (100 μL in every well) for 24 h (37 °C, 5%CO2). Then the cells were incubated continuously for 72 h following various concentrations of test drugs were added. The concentrations are 50 μM, 10 μM, 2 μM, 0.4 μM, 0.08 μM, 0.016 μM, 0.0032 μM, respectively. After the 100 μL 0.05% MTT solution was added to each well, the plate was incubated for a further 4 h before removal of medium, the media removed. Formazan crystals were dissolved with 100 μL DMSO, then the absorbance was detected at 490 nm.

[2] = tested on: HeLa human cervical carcinoma cell line; experiment: MTT in vitro antitumor (antiproliferative) assay, HeLa; format: cell-based; settings: 72 h, read-out: IC50 HeLa
Procedure: as §1, §2

[3] = Chemical stability of the prodrugs in PBS (HPLC); format: physicochemical; settings: for Remaining Prodrugs 1 h pH 4.6 / Remaining Prodrugs 12 h pH 4.6: PBS pH 4.6, 37 °C; for Remaining Prodrugs 1 h pH 7.4 / Remaining Prodrugs 12 h pH 7.4: PBS pH 7.4, 37 °C
Procedure: They were stable at pH 4.6 at 37 °C for 12 h. Except for compound 5h, less than 35% of the prodrugs remained after incubation for 12 h in pH 7.4 buffer. […] For example, less than 30% of the prodrugs 7a–f remained, while more than 85% of the prodrugs 5a–h remained after incubation for 1 h in pH 7.4 buffer.
The stability of all compounds was investigated in PBS and human plasma by HPLC using a C18 analytical column. The mobile phase was composed of water and acetonitrile at a ratio of 70:30, respectively, containing 1% trifluoroacetic acid. The amount of the compound and its metabolite SN-38 were flowed at the rate of 0.8 mL·min^−1 and detected by the UV wavelength of 370 nm. Stability test in PBS: each compound was dissolved in PBS (pH 7.4 and pH 4.6), incubated at 37 °C and analyzed at 1, 3, 6, 12 h. Stability test in plasma: The test compounds were dissolved in DMSO and diluted to 1 mM by 0.9% physiological saline. Forty μL of each solution was added into plasma with a final concentration of 0.1 mM. The mixture was incubated in a 37 °C water bath following the vigorous vortex mixing for 15 s. Samples were analyzed at 1, 3, 6, 12 h. 400 μL of cold acetonitrile (containing 1% trifluoroacetic acid) was added to each sample, vortex-mixed for 15 s and centrifuged at 3500 rpm for 15 min at 4 °C.

[4] = tested on: human colon adenocarcinoma SW1116 xenografts; experiment: Tumor growth inhibition in human colon adenocarcinoma SW1116 xenografts in nude mice; format: in vivo; settings: 60 mg/kg, injection in the tumor section once per day for 6 days
Procedure: The antitumor activity of 5e, compared with CPT-11 and SN-38, was investigated in human colon adenocarcinoma SW1116 xenografts in nude mice. The model animals were divided into four experimental groups, eight animals per group. Tested compouds were each administered by injection in the tumor section once per day for contiguous 6 days. The injection doses of test compound 5e, CPT-11, and SN-38 were 60 mg/kg, respectively. Using the vehicle group as the control, we tested the inhibitory activities of these compounds for 6 days and measured the changes in body weight and tumor size every 2 days. […] No toxic death occurred after drug treatment, and the body weight losses induced by 5e, CPT-11, and SN-38 at the given dose were similar.

[5] = target: AChE from electric eel (Electrophorus electricus, UniProt O42275); experiment: AChE inhibition assay (modified Ellman method); format: biochemical; settings: AChE IC50, electric eel AChE, phosphate buffer pH 7.3, 37 °C
Excerpt: Irinotecan has been reported to be a potent inhibiter of AChE, and inhibition of this enzyme causes acute cholinergic diarrhea. Unlike irinotecan, the compounds we assayed were only weak inhibitors of AChE. […] One possible explanation is that the active site of AChE is present at the bottom of a gorge that is lined with hydrophobic amino acid residues. The terminal dipiperidino moiety in CPT-11 that interacts with amino acid residues within AChE plays a major role in enzyme inhibition, which has been confirmed by X-ray crystallographic studies.
The AChE inhibition by all compounds was studied according to a modification of the method of Ellman et al.. The activity was assayed with AChE from electric eel in the presence or absence of the test compounds in phosphate buffer (pH7.3). After the incubation at 37 °C for 1 min, 0.38 mM 5,5-dithiobisnitrobenzoic acid and 0.56 mM ATCh were added to the buffer. The changes in absorbance were read at 412 nm, per 15 s intervals for 3 min by a spectrophotometer (UV-2500, Shimadzu Corp., Kyoto, Japan).

Sequence of AChE from electric eel (O42275 24-633): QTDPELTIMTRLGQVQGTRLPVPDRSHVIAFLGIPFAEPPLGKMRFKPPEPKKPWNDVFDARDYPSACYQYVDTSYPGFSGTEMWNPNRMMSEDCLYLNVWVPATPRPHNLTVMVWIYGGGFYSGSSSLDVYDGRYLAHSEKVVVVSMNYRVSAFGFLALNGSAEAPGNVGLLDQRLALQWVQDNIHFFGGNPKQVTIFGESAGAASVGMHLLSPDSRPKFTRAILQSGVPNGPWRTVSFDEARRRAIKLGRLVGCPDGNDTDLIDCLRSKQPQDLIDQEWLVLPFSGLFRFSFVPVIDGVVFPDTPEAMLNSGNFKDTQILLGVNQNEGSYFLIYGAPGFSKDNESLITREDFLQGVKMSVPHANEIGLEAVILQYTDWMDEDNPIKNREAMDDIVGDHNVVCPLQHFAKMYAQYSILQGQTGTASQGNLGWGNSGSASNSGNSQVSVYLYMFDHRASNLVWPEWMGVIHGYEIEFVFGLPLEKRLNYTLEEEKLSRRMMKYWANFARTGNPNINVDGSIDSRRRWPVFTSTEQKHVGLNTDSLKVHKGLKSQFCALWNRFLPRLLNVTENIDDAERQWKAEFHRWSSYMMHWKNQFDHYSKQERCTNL

SMILES: CCc1c2c(nc3ccc(OC(=O)NCC(=O)N[C@@H](CC(=O)O)C(=O)O)cc13)-c1cc3c(c(=O)n1C2)COC(=O)[C@]3(O)CC [Compound 7b, 10-OCO-(L-Asp-Gly-OH)-SN-38]
- IC50 [1]: 610 ± 680 nM
- IC50 [2]: 14.8 nM
- Remaining Prodrugs 1 h pH 4.6 [3]: 100%
- Remaining Prodrugs 12 h pH 4.6 [3]: 96.9%
- Remaining Prodrugs 1 h pH 7.4 [3]: 17.6%
- Remaining Prodrugs 12 h pH 7.4 [3]: 0%

SMILES: CCc1c2c(nc3ccc(O)cc13)-c1cc3c(c(=O)n1C2)COC(=O)[C@]3(O)CC [SN-38, 7-ethyl-10-hydroxycamptothecin]
- Tumor Weight ([4]; SW1116 xenograft nude mice, x ± SD): 0.32 ± 0.12 g/10g
- Inhibitory Rate ([4]; day 6, vs vehicle): 8.6%

SMILES: CCc1c2c(nc3ccc(OC(=O)NC(C(=O)O)C(C)C)cc13)-c1cc3c(c(=O)n1C2)COC(=O)[C@]3(O)CC (stereo partly shown) [Compound 5c, 10-OCO-(Val-OH)-SN-38]
- IC50 [1]: 1880 ± 720 nM
- IC50 [2]: 5.61 nM

SMILES: CCc1c2c(nc3ccc(OC(=O)NCC(=O)O)cc13)-c1cc3c(c(=O)n1C2)COC(=O)[C@]3(O)CC [Compound 5a, 10-OCO-(Gly-OH)-SN-38]
- IC50 [1]: 2690 ± 110 nM
- IC50 [2]: 30.4 nM
- IC50 [5]: 19800 nM
- Remaining Prodrugs 1 h pH 4.6 [3]: 100%
- Remaining Prodrugs 12 h pH 4.6 [3]: 98.4%
- Remaining Prodrugs 1 h pH 7.4 [3]: 85.3%
- Remaining Prodrugs 12 h pH 7.4 [3]: 14.8%

SMILES: CCc1c2c(nc3ccc(OC(=O)NCC(=O)NC(CCC(=O)O)C(=O)O)cc13)-c1cc3c(c(=O)n1C2)COC(=O)[C@]3(O)CC (stereo partly drawn) [Compound 7c, 10-OCO-(Glu-Gly-OH)-SN-38]
- IC50 [1]: 200 ± 70 nM
- fold greater antiproliferative activity (lower IC50) than irinotecan, SGC-7901 cells [1]: 30 fold
- IC50 [2]: < 3.2 nM
- IC50 [5]: > 100000 nM
- Remaining Prodrugs 1 h pH 4.6 [3]: 100%
- Remaining Prodrugs 12 h pH 4.6 [3]: 96.4%
- Remaining Prodrugs 1 h pH 7.4 [3]: 29.4%
- Remaining Prodrugs 12 h pH 7.4 [3]: 0%

SMILES: CCc1c2c(nc3ccc(OC(=O)NC(CCC(=O)O)C(=O)O)cc13)-c1cc3c(c(=O)n1C2)COC(=O)[C@]3(O)CC (stereo partly shown) [Compound 5d, 10-OCO-(Glu-OH)-SN-38]
- Remaining Prodrugs 1 h pH 4.6 [3]: 98.1%
- Remaining Prodrugs 12 h pH 4.6 [3]: 92.5%
- Remaining Prodrugs 1 h pH 7.4 [3]: 85.2%
- Remaining Prodrugs 12 h pH 7.4 [3]: 8.6%

SMILES: CCc1c2c(nc3ccc(OC(=O)NC(C(=O)O)C(C)CC)cc13)-c1cc3c(c(=O)n1C2)COC(=O)[C@]3(O)CC (stereo partly shown) [Compound 5f, 10-OCO-(Ile-OH)-SN-38]
- IC50 [1]: 760 ± 340 nM
- IC50 [2]: 3.64 nM
- IC50 [5]: 1360 nM

SMILES: CCc1c2c(nc3ccc(OC(=O)N[C@@H](CC(=O)O)C(=O)O)cc13)-c1cc3c(c(=O)n1C2)COC(=O)[C@]3(O)CC [Compound 5h, 10-OCO-(D-Asp-OH)-SN-38]
- IC50 [1]: 240 nM
- fold greater antiproliferative activity (lower IC50) than irinotecan, SGC-7901 cells [1]: 30 fold
- IC50 [2]: < 3.2 nM
- IC50 [5]: 7430 nM
- Remaining Prodrugs 1 h pH 4.6 [3]: 100%
- Remaining Prodrugs 12 h pH 4.6 [3]: 94.5%
- Remaining Prodrugs 1 h pH 7.4 [3]: 93.4%
- Remaining Prodrugs 12 h pH 7.4 [3]: 52.2%

Source: PMC6270839, “Synthesis and Biological Evaluation of Novel 10-Substituted-7-ethyl-10-hydroxycamptothecin (SN-38) Prodrugs” (Molecules, 2014)
